Laboratory results: PubChem BioAssay (NCI)
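Compound exposure: 48 hours, 5 concentrations, 96-well plates. GI50: concentration for 50% inhibition of growth. TGI: total growth inhibition.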

Key:
Test in all cases: NCI tumour cell line growth inhibition, 48 h
CCRF-CEM leukemia = tested on: CCRF-CEM leukemia
HCT-15 colon = tested on: HCT-15 colon
M14 melanoma = tested on: M14 melanoma
MALME-3M melanoma = tested on: MALME-3M melanoma
NCI-H23 lung = tested on: NCI-H23 lung
OVCAR-3 ovarian = tested on: OVCAR-3 ovarian
OVCAR-5 ovarian = tested on: OVCAR-5 ovarian
SK-MEL-2 melanoma = tested on: SK-MEL-2 melanoma
SK-OV-3 ovarian = tested on: SK-OV-3 ovarian
U251 CNS = tested on: U251 CNS
HOP-62 NSCLC = tested on: HOP-62 NSCLC
NCI-H226 lung = tested on: NCI-H226 lung
786-0 renal = tested on: 786-0 renal

SMILES	TGI (CCRF-CEM leukemia) [µM]	TGI (HCT-15 colon) [µM]	TGI (M14 melanoma) [µM]	TGI (MALME-3M melanoma) [µM]	TGI (NCI-H23 lung) [µM]	TGI (OVCAR-3 ovarian) [µM]	TGI (OVCAR-5 ovarian) [µM]	TGI (SK-MEL-2 melanoma) [µM]	TGI (SK-OV-3 ovarian) [µM]	TGI (U251 CNS) [µM]	TGI (HOP-62 NSCLC) [µM]	TGI (NCI-H226 lung) [µM]	TGI (786-0 renal) [µM]	GI50 (CCRF-CEM leukemia) [µM]	GI50 (M14 melanoma) [µM]	GI50 (MALME-3M melanoma) [µM]	GI50 (SK-MEL-2 melanoma) [µM]	GI50 (SK-OV-3 ovarian) [µM]
C1=CCN(c2ccccc2)CC1	> 100	47.1	44.8	46.8	> 100	61.2	> 100	> 100	> 100	> 100								
Nc1ccc(N=Nc2ccc(/C=C/c3ccc(N=Nc4ccc(N)c5ccc(S(=O)(=O)O)cc45)cc3S(=O)(=O)O)c(S(=O)(=O)O)c2)c2cc(S(=O)(=O)O)ccc12	> 100	> 100		> 100	> 100	> 100	> 100	> 100	> 100	> 100	> 100	> 100						
O=C1/C(=C/c2cccc([N+](=O)[O-])c2)COc2ccccc21		3.11	3.38	> 50.6	18.2	13.2	> 100	20	> 62.8	6.83	> 30.4	22.6	3.16					
C/C(C=O)=N\Nc1cc(C)c2ccccc2n1	29.3	26.3	31.8		25.9	29.1	34.3	37.8	45	31.2	29.2		28.7					
CCN(CC)CCCCC1CCN(CC(=O)N2c3ccccc3NC(=O)c3ccccc32)CC1	> 100		39.7	> 100	> 100	> 100		> 100	> 100		> 100	> 100	> 100					
CN(C)c1ccc(C2CC(=O)CC(c3ccc(N(C)C)cc3)C23C(=O)NC(=O)NC3=O)cc1 (stereo unspecified)	> 25	> 25	> 25	> 25	> 25	> 25	> 25	> 25		> 25	> 25	> 25	> 25					
CC(=O)c1c2c(cc3c1CC1(Cc4cc5c(cc4C1)CCC5)C3)CCC2	> 100	> 100	> 100	> 100	> 100	> 100	> 100	> 100	> 100	> 100	> 100		> 100					
CC(=NNC(=S)Nc1ccccc1C)c1cccc(C(C)=NNC(=S)Nc2ccccc2C)n1	> 100	> 100	> 100	76.9	> 100		> 100	> 100	> 100	> 100	> 100	> 100	> 100					
CC1CN=C(NCc2ccccc2)S1 (stereo unspecified)	> 100	> 100	> 100	> 100	> 100	> 100	> 100	> 100	> 100	> 100	> 100	> 100						
COc1cc(/C=C2\CCCC3=C2NC(N)=NC3c2cc(OC)c(OC)c(OC)c2)cc(OC)c1OC (stereo unspecified)	7.31		2.91	5.47				4.83	> 100					0.419	0.633	1.92	2.08	3.43
CN(C(=O)C1=CCCCCC1)c1ccccc1I	> 100	> 100	> 100		> 100	> 100	> 100	> 100	> 100	> 100	> 100		> 100					
CCCCCCCCCCCCCCCC(=O)NC1CCc2cc(O)c(O)c(O)c2-c2ccc(SC)c(=O)cc21 (stereo unspecified)	46.2	15.5	25	28.5	16.6	16.8	26.8		29.5	12.6	25.4	27.4	33.3					
CCOC(=O)CCc1c(C(=O)OCC)[nH]c(/C=C2/NC(=O)C(C)=C2CC)c1C		15.3	20.8	33.3	11.7	16.1	> 100	40.9	> 100	24.1	29.8	48.2	46.2					
COc1c(O)cc(/C=C/c2cc(O)cc3c2[C@@]2(C(=O)O3)c3c(O)cc(O)cc3OC2c2cccc(O)c2)cc1O (stereo partly specified)	> 100	> 100	> 100	> 100	> 100	> 100		> 100	74.8	> 100	> 100		> 100					
COc1ccc2c(OC)c3ccoc3nc2c1O	> 100	> 100	> 100	> 100	> 100	> 100	> 100	> 100	> 100	> 100	> 100		> 100					
CC(=O)OC1[C@H]2c3cc4c(cc3CN3CCC(C[C@@H]1OC(C)=O)C23)OCO4 (stereo partly specified)	> 75	> 75	> 75	> 75	> 75	> 75			> 75	> 75	> 75	59.9	> 75					
COc1cc(C2c3cccc4cccc(c34)C3CCC(=O)N32)cc(O)c1O (stereo unspecified)	31.4	> 50	> 50		> 50	> 50	> 50	> 50	> 50	> 50	> 50	> 50	> 50					
COC(=O)c1c/c(=N\NC(=O)CC(=O)Nc2ccccc2Cl)c2ccccc2o1		> 100	> 100		> 100	> 100	> 100	> 100	> 100	> 100	> 100	> 100	> 100					
Oc1cn(-c2ccc(Cl)cc2)nc1-c1nnc(Nc2ccccc2)o1		28	37.5	50.1	27.3	> 100	> 100	38.3	49.4	34.1	31.6	31.4	36.1					
